Experiments:
Assay type in all cases: in vivo
[1] = test system: blackgrass (Alopecurus myosuroides); assay: Test A postemergence, blackgrass; settings: Postemergence, 0 to 100 scale (0 no effect, 100 complete control); for Blackgrass plant response rating: 500 g ai/ha, visual injury vs untreated controls after approx. 10 days
Summary of the method: (§1)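 After sowing into a sand-amended loam, pots for the preemergence test were treated by spraying directly onto soil. In parallel, seedlings at the one- to two-leaf stage and 2 to 10 cm tall were treated postemergence with the identical surfactant-containing formulation.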

[2] = test system: kochia (Bassia scoparia); assay: Test A postemergence, kochia; settings: Postemergence; for Kochia plant response rating: 500 g ai/ha, visual injury vs untreated controls after approx. 10 days
Summary of the method: as §1

[3] = test system: barnyardgrass (Echinochloa crus-galli); assay: Test A preemergence, barnyardgrass; settings: Preemergence; for Barnyardgrass plant response rating: 125 g ai/ha, visual injury on 0 to 100 scale (0 no effect, 100 complete control), approximately 10 days; for Plant response rating, Barnyardgrass: 0 to 100 scale (0 no effect, 100 complete control)
Summary of the method: as §1

[4] = test system: ragweed (common ragweed, Ambrosia artemisiifolia); assay: Test A preemergence, ragweed; settings: Preemergence; for Ragweed plant response rating: 125 g ai/ha, visual injury on 0 to 100 scale (0 no effect, 100 complete control), approximately 10 days; for Plant response rating, Ragweed: 0 to 100 scale (0 no effect, 100 complete control)
Summary of the method: as §1

[5] = test system: galium (catchweed bedstraw, Galium aparine); assay: Test A postemergence, galium; settings: Postemergence; for Galium plant response rating: 500 g ai/ha, visual injury vs untreated controls after approx. 10 days
Summary of the method: (§2)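 Seeds are sown in loam mixed with sand and sprayed on the soil surface right after planting for the preemergence test. Postemergence pots are sprayed once seedlings reach 2 to 10 cm at the one- to two-leaf stage. The same surfactant-containing, non-phytotoxic solvent formulation serves both.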

[6] = test system: ragweed (common ragweed, Ambrosia artemisiifolia); assay: Test A postemergence, ragweed; settings: Postemergence; for Ragweed plant response rating: 500 g ai/ha, visual injury vs untreated controls after approx. 10 days
Summary of the method: as §1

[7] = test system: Ryegrass, Italian (Italian ryegrass, Lolium multiflorum); assay: Test A preemergence, Ryegrass, Italian; settings: Preemergence; for Ryegrass, Italian plant response rating: 125 g ai/ha, visual injury on 0 to 100 scale (0 no effect, 100 complete control), approximately 10 days; for Plant response rating, Ryegrass, Italian: 0 to 100 scale (0 no effect, 100 complete control)
Summary of the method: as §1

[8] = test system: kochia (Bassia scoparia); assay: Test A preemergence, kochia; settings: Preemergence; for Kochia plant response rating: 125 g ai/ha, visual injury on 0 to 100 scale (0 no effect, 100 complete control), approximately 10 days; for Plant response rating, Kochia: 0 to 100 scale (0 no effect, 100 complete control)
Summary of the method: as §1

[9] = test system: corn (Zea mays); assay: Test A postemergence, corn; settings: Postemergence; for Corn plant response rating: 500 g ai/ha, visual injury vs untreated controls after approx. 10 days
Summary of the method: as §1

[10] = test system: Foxtail, Giant (giant foxtail, Setaria faberi); assay: Test A postemergence, Foxtail, Giant; settings: Postemergence; for Foxtail, Giant plant response rating: 500 g ai/ha, visual injury vs untreated controls after approx. 10 days
Summary of the method: as §1

[11] = test system: Foxtail, Giant (giant foxtail, Setaria faberi); assay: Test A preemergence, Foxtail, Giant; settings: Preemergence; for Foxtail, Giant plant response rating: 125 g ai/ha, visual injury on 0 to 100 scale (0 no effect, 100 complete control), approximately 10 days; for Plant response rating, Foxtail, Giant: 0 to 100 scale (0 no effect, 100 complete control)
Summary of the method: as §1

[12] = test system: barnyardgrass (Echinochloa crus-galli); assay: Test A postemergence, barnyardgrass; settings: Postemergence, 0 to 100 scale (0 no effect, 100 complete control); for Barnyardgrass plant response rating: 500 g ai/ha, visual injury vs untreated controls after approx. 10 days
Summary of the method: as §2

[13] = test system: wheat (Triticum aestivum); assay: Test A postemergence, wheat; settings: Postemergence; for Wheat plant response rating: 500 g ai/ha, visual injury vs untreated controls after approx. 10 days
Summary of the method: as §2

[14] = test system: pigweed (Amaranthus retroflexus); assay: Test A preemergence, pigweed; settings: for Pigweed plant response rating: 125 g ai/ha, visual injury on 0 to 100 scale (0 no effect, 100 complete control), approximately 10 days; for Plant response rating, Pigweed: 0 to 100 scale (0 no effect, 100 complete control)
Summary of the method: as §2

[15] = test system: pigweed (Amaranthus retroflexus); assay: Test A postemergence, pigweed; settings: Postemergence; for Pigweed plant response rating: 500 g ai/ha, visual injury vs untreated controls after approx. 10 days
Summary of the method: as §1

[16] = test system: Ryegrass, Italian (Italian ryegrass, Lolium multiflorum); assay: Test A postemergence, Ryegrass, Italian; settings: Postemergence; for Ryegrass, Italian plant response rating: 500 g ai/ha, visual injury vs untreated controls after approx. 10 days
Summary of the method: as §1

[17] = 125 g ai/ha, visual injury approx. 10 days
[18] = 125 g ai/ha, visual injury approx. 10 days, 0 to 100 scale (0 no effect, 100 complete control)
[19] = 0 to 100 scale (0 no effect, 100 complete control)
[20] = 31 g ai/ha, visual injury on 0 to 100 scale (0 no effect, 100 complete control), approx. 10 days
[21] = 31 g ai/ha, visual injury, approx. 10 days
[22] = 125 g ai/ha, 0 to 100 scale (0 no effect, 100 complete control)

Row | Compound | Plant response rating, Blackgrass [1, 17] | Blackgrass plant response rating [1] | Plant response rating, Kochia [2, 18] | Kochia plant response rating [2, 19] | Barnyardgrass plant response rating [3] | Plant response rating, Barnyardgrass ([3]; 500 g ai/ha) | Ragweed plant response rating [4] | Plant response rating, Ragweed ([4]; 500 g ai/ha) | Plant response rating, Galium [5, 18] | Galium plant response rating [5, 19] | Ragweed plant response rating [6, 19] | Ryegrass, Italian plant response rating [7] | Plant response rating, Ryegrass, Italian ([7]; 500 g ai/ha) | Kochia plant response rating [8] | Plant response rating, Kochia ([8]; 500 g ai/ha) | Plant response rating, Corn [9, 18] | Plant response rating, Foxtail, Giant [10, 18] | Foxtail, Giant plant response rating [11] | Plant response rating, Barnyardgrass [12, 17] | Pigweed plant response rating [14] | further results
1 | Cc1cc(C)c(C2=NOC3(C2)CC(C)(C)CC(C)(C)C3)cc1NS(=O)(=O)C(F)(F)F [Compound 122] | 0 | 10 | 0 | 10 | 0 | 70 | 0 | 0 | 60 | 90 | 0 | 30 | 80 | 70 | 30 | 0 | 0 | 50 | 10 | 0 | Plant response rating, Ragweed [6, 18]: 0; Corn plant response rating [9, 19]: 0; Foxtail, Giant plant response rating [10, 19]: 20; Plant response rating, Foxtail, Giant ([11]; 500 g ai/ha): 100; Barnyardgrass plant response rating [12]: 70; Plant response rating, Wheat [13, 18]: 0; Wheat plant response rating [13, 19]: 0; Plant response rating, Pigweed ([14]; 500 g ai/ha): 30; Plant response rating, Pigweed [15, 18]: 20; Pigweed plant response rating [15, 19]: 50; Plant response rating, Ryegrass, Italian [16, 18]: 0; Ryegrass, Italian plant response rating [16, 19]: 0
2 | Cc1cc(C)c(C2=NOC3CCCCC23)cc1NS(=O)(=O)C(F)(F)F (stereo not shown) [Compound 123] | 20 | 50 | 50 | 70 | 100 | 100 | 50 | 80 | 80 | 90 | 70 | 90 | 100 | 40 | 80 | 10 | 30 | 100 | 90 | 90 | Plant response rating, Ragweed [6, 18]: 50; Corn plant response rating [9, 19]: 70; Foxtail, Giant plant response rating [10, 19]: 80; Plant response rating, Foxtail, Giant ([11]; 500 g ai/ha): 100; Barnyardgrass plant response rating [12]: 90; Plant response rating, Wheat [13, 18]: 50; Wheat plant response rating [13, 19]: 60; Plant response rating, Pigweed ([14]; 500 g ai/ha): 100; Plant response rating, Pigweed [15, 18]: 60; Pigweed plant response rating [15, 19]: 80; Plant response rating, Ryegrass, Italian [16, 18]: 50; Ryegrass, Italian plant response rating [16, 19]: 50
3 | Cc1cc(C#N)c(C(=O)N2CCCCC2)cc1NS(=O)(=O)C(F)(F)F [Compound 126] | 20 | 30 | 10 | 30 | 0 | 40 | 0 | 30 | 80 | 90 | 30 | 0 | 40 | 0 | 30 | 0 | 0 | 20 | 0 | 70 | Plant response rating, Ragweed [6, 18]: 0; Corn plant response rating [9, 19]: 20; Foxtail, Giant plant response rating [10, 19]: 0; Plant response rating, Foxtail, Giant ([11]; 500 g ai/ha): 90; Barnyardgrass plant response rating [12]: 0; Plant response rating, Wheat [13, 18]: 0; Wheat plant response rating [13, 19]: 0; Plant response rating, Pigweed ([14]; 500 g ai/ha): 100; Plant response rating, Pigweed [15, 18]: 70; Pigweed plant response rating [15, 19]: 90; Plant response rating, Ryegrass, Italian [16, 18]: 0; Ryegrass, Italian plant response rating [16, 19]: 0
4 | Cc1cc(C)c(N(S(=O)(=O)C(F)(F)F)S(=O)(=O)C(F)(F)F)cc1C1=NOC(C(C)(C)C)C1 (stereo not shown) [Compound 127] | 20 | 20 | 10 | 40 | 50 | 90 | 0 | 60 | 20 | 90 | 50 | 60 | 80 | 80 | 80 | 0 | 0 | 20 | 0 | 20 | Plant response rating, Ragweed [6, 18]: 20; Corn plant response rating [9, 19]: 20; Foxtail, Giant plant response rating [10, 19]: 0; Plant response rating, Foxtail, Giant ([11]; 500 g ai/ha): 90; Barnyardgrass plant response rating [12]: 70; Plant response rating, Wheat [13, 18]: 0; Wheat plant response rating [13, 19]: 0; Plant response rating, Pigweed ([14]; 500 g ai/ha): 40; Plant response rating, Pigweed [15, 18]: 0; Pigweed plant response rating [15, 19]: 40; Plant response rating, Ryegrass, Italian [16, 18]: 40; Ryegrass, Italian plant response rating [16, 19]: 50
5 | Cc1c(NS(=O)(=O)C(F)(F)F)cc(C(=O)N2CCC3(CC2)OCCCO3)c(C)c1F [Compound 129] | 20 | 30 | 30 | 50 | 100 | 90 | 70 | 90 | 60 | 80 | 90 | 80 | 100 | 80 | 90 | 10 | 0 | 100 | 20 | 100 | Plant response rating, Ragweed [6, 18]: 60; Corn plant response rating [9, 19]: 20; Foxtail, Giant plant response rating [10, 19]: 30; Plant response rating, Foxtail, Giant ([11]; 500 g ai/ha): 100; Barnyardgrass plant response rating [12]: 80; Plant response rating, Wheat [13, 18]: 30; Wheat plant response rating [13, 19]: 60; Plant response rating, Pigweed ([14]; 500 g ai/ha): 100; Plant response rating, Pigweed [15, 18]: 30; Pigweed plant response rating [15, 19]: 90; Plant response rating, Ryegrass, Italian [16, 18]: 0; Ryegrass, Italian plant response rating [16, 19]: 70
6 | Cc1cc(C)c(C2=NOC3CCCCC23)cc1NS(=O)(=O)C(F)(F)F (stereo not shown) [Compound 131] | 0 | – | 60 | – | 90 | – | 40 | – | 90 | – | – | 80 | – | 40 | – | 20 | 10 | 100 | 80 | 90 | Plant response rating, Blackgrass ([1]; 31 g ai/ha): 20; Plant response rating, Kochia [2, 20]: 40; Plant response rating, Barnyardgrass [3, 21]: 70; Plant response rating, Ragweed [4, 21]: 0; Plant response rating, Galium [5, 20]: 60; Plant response rating, Ragweed [6, 20]: 30; Plant response rating, Ryegrass, Italian [7, 21]: 30; Plant response rating, Kochia [8, 21]: 30; Plant response rating, Corn [9, 20]: 0; Plant response rating, Foxtail, Giant [10, 20]: 0; Plant response rating, Foxtail, Giant [11, 21]: 90; Plant response rating, Barnyardgrass ([12]; 31 g ai/ha): 20; Plant response rating, Wheat [13, 20]: 0; Plant response rating, Pigweed [14, 21]: 30; Plant response rating, Pigweed [15, 20]: 50; Plant response rating, Ryegrass, Italian [16, 20]: 0
7 | Cc1cc(C(F)(F)F)c(NS(=O)(=O)C(F)(F)F)cc1C(=O)N(C)C [Compound 132] | 0 | 0 | 20 | 20 | 60 | 100 | 80 | 90 | 70 | 90 | 90 | 80 | 100 | 0 | 70 | 0 | 20 | 30 | 0 | 100 | Plant response rating, Ragweed [6, 22]: 60; Corn plant response rating [9, 19]: 20; Foxtail, Giant plant response rating [10, 19]: 40; Plant response rating, Foxtail, Giant ([11]; 500 g ai/ha): 90; Barnyardgrass plant response rating [12]: 40; Plant response rating, Wheat [13, 22]: 40; Wheat plant response rating [13, 19]: 0; Plant response rating, Pigweed ([14]; 500 g ai/ha): 100; Plant response rating, Pigweed [15, 22]: 70; Pigweed plant response rating [15, 19]: 90; Plant response rating, Ryegrass, Italian [16, 22]: 0; Ryegrass, Italian plant response rating [16, 19]: 40
